Patent publication US20230092679A1, “MCL-1 INHIBITOR ANTIBODY-DRUG CONJUGATES AND METHODS OF USE” (NOVARTIS AG, priority 2019, published 2023)

Tests used:
Format in all cases: cell-based
nomo1 = assay: In vitro ADC activity, AML cell lines, CellTiter-Glo (Example 20); conditions: nomo1, 5 days
hel = assay: as above; conditions: 5 days
KMS-20 = assay: CellTiter-Glo proliferation assay, single agent and with venetoclax (Example 19); conditions: 5 days; for IC50: KMS-20, 120 h; for Amax: in %
Protocol: (§1) The CD48 MCL-1 antibody drug conjugates were tested against four endogenous cancer cell lines. KMS-21 BM (JCRB No. JCRB1185 cultured in RPMI-1640+10% FBS), KMS-20 (JCRB No. JCRB1196 cultured in RPMI-1640+10% FBS), KMS-27 (JCRB No. JCRB1188 cultured in RPMI-1640+10% FBS), and NCI-H929 (ATCC No. CRL-9068 cultured in RPMI-1640+10% FBS+0.05 mM 2-mercaptoethanol).
(§2) The ability of the CD48 MCL-1 antibody drug conjugates to inhibit cell proliferation and survival was assessed using the Promega CellTiter-Glo® proliferation assay. Cell lines were cultured in media that is optimal for their growth at 5% CO2, 37° C. in a tissue culture incubator. Prior to seeding for the proliferation assay, the cells were split at least 2 days before the assay to ensure optimal growth density. On the day of seeding, suspension cells were harvested. Cell viability and cell density were determined using a cell counter (Vi-Cell XR Cell Viability Analyzer, Beckman Coulter). […] Cells were seeded at a density of 1,000 cells per well in 45 μL of standard growth media. Plates were incubated at 5% CO2, 37° C. overnight in a tissue culture incubator. The next day, free MCL-1 payload (P1), targeting MCL-1 ADCs and non-targeting isotype ADCs were prepared at 10× in standard growth media. The prepared drug treatments were then added to the cells resulting in final concentrations of 0.0005-300 nM and a final volume of 50 μL per well. Each drug concentration was tested in quadruplets. Two conditions were evaluated for each compound. The compounds were evaluated as single agents and in combination with venetoclax. The venetoclax was dosed at either 5 nM or 50 nM final concentration. Plates were incubated at 5% CO2, 37° C. for 5 days in a tissue culture incubator, after which cell viability was assessed through the addition of 25 μL of CellTiter Glo® (Promega, cat #G7573), a reagent which lyses cells and measures total adenosine triphosphate (ATP) content. Plates were incubated at room temperature for 10 minutes to stabilize luminescent signals prior to reading using a luminescence reader (EnVision Multilabel Plate Reader, PerkinElmer). To evaluate the effect of the drug treatments, luminescent counts from wells containing untreated cells (100% viability) were used to normalize treated samples. A variable slope model was applied to fit a nonlinear regression curve to the data in GraphPad PRISM version 7.02 software. IC50 and Amax values were extrapolated from the resultant curves.

KMS-21 BM = assay: as above; conditions: 5 days; for IC50: 120 h; for Amax: in %
Protocol: as §1, §2

5340hx = assay: In vitro ADC activity, AML cell lines, CellTiter-Glo (Example 20); conditions: 5 days
f36p = assay: as above; conditions: 5 days
thp1 = assay: as above; conditions: thp1, 5 days
sigm5 = assay: as above; conditions: sigm5, 5 days
5339hx = assay: as above; conditions: 5 days
cmk = assay: as above; conditions: 5 days
pl21 = assay: as above; conditions: pl21, 5 days
21435hx = assay: as above; conditions: 5 days
molm13 = assay: as above; conditions: molm13, 5 days
skm1 = assay: as above; conditions: skm1, 5 days

Work on `COc1ccccc1-c1nccc(COc2ccccc2C[C@@H](Oc2ncnc3sc(-c4ccc(F)cc4)c(-c4ccc(OCCN5CCN(C)CC5)c(Cl)c4C)c23)C(=O)O)n1` [P1, (2R)-2-[5-[3-chloro-2-methyl-4-[2-(4-methylpiperazin-1-yl)ethoxy]phenyl]-6-(4-fluorophenyl)thieno[2,3-d]pyrimidin-4-yl]oxy-3-[2-[[2-(2-methoxyphenyl)pyrimidin-4-yl]methoxy]phenyl]propanoic acid] yielded a GI50 (nomo1; Homo sapiens, NOMO-1, 120 h) of 1 nM, an Amax (nomo1; in % (unit assumed)) of −80 and an Amax (hel; unit assumed) of 4%. For the same molecule, the GI50 (hel; Homo sapiens, 120 h) was 6090 nM, the IC50 (KMS-20; KMS-20, + 5 nM Venetoclax) was 30.6 nM and the IC50 (KMS-20; KMS-20, + 50 nM Venetoclax) was 36.2 nM. For the same molecule, the IC50 (KMS-20; KMS-20, single agent) was 34.7 nM, the Amax (KMS-20; KMS-20, + 5 nM Venetoclax) was 75.53 and the Amax (KMS-20; KMS-20, + 50 nM Venetoclax) was 82.77. The Amax (KMS-20; KMS-20, single agent) was 65.65, the IC50 (KMS-21 BM; + 5 nM Venetoclax) was 5.57 nM and the IC50 (KMS-21 BM; + 50 nM Venetoclax) was 5.23 nM. The IC50 (KMS-21 BM; single agent) was 5.73 nM, the Amax (KMS-21 BM; + 5 nM Venetoclax) was 100.8 and the Amax (KMS-21 BM; + 50 nM Venetoclax) was 99.41. For the same molecule, the Amax (KMS-21 BM; single agent) was 94.25, the GI50 (5340hx; 120 h) was 1 nM and the Amax (5340hx; in % (unit assumed)) was −92. The GI50 (f36p; 120 h) was over 10000 nM, the Amax (f36p; unit assumed) was 51% and the GI50 (thp1; Homo sapiens, THP-1, 120 h) was 28 nM. It also gave an Amax (thp1; in % (unit assumed)) of −72, a GI50 (sigm5; Homo sapiens, SIG-M5, 120 h) of 118 nM and an Amax (sigm5; in % (unit assumed)) of −21. It also gave a GI50 (5339hx; 120 h) of 5 nM, an Amax (5339hx; in % (unit assumed)) of −83 and an Amax (cmk; unit assumed) of 100%. It also gave a GI50 (cmk; Homo sapiens, 120 h) of over 10000 nM, a GI50 (pl21; PL-21, 120 h) of 350 nM and an Amax (pl21; in % (unit assumed)) of −55. The GI50 (21435hx; 120 h) was 12 nM, the Amax (21435hx; in % (unit assumed)) was −91 and the GI50 (molm13; Homo sapiens, MOLM-13, 120 h) was 2 nM. It also gave an Amax (molm13; in % (unit assumed)) of −54, a GI50 (skm1; Homo sapiens, SKM-1, 120 h) of 119 nM and an Amax (skm1; in % (unit assumed)) of −49.
